Activity calls are given as the source filed them. The rule behind the calls is not given here.
Experiments:
Enterovirus [1] = assay: Antiviral activity against EV71 infected in human RD cells assessed as protection from virus-induced cytopathogenicity incubated for 48 hrs by MTT assay; assay type: functional, organism-based; conditions: Enterovirus, 71, RD
Coxsackievirus B3 [2] = assay: Antiviral activity against CVB3 infected in HEp-2 cells assessed as inhibition of virus-induced cell death at 25 uM incubated for 48 hrs by MTT assay relative to control; assay type: functional; conditions: Enterovirus B
Coxsackievirus B3 [3] = assay: Antiviral activity against CVB3 infected in HEp-2 cells assessed as protection from virus-induced cytopathogenicity incubated for 48 hrs by MTT assay; assay type: functional, organism-based; conditions: Enterovirus B, HEp-2, 48 h
Coxsackievirus B3 [4] = assay: Antiviral activity against CVB3 infected in HEp-2 cells assessed as inhibition of virus-induced cell death at 25 to 100 uM incubated for 48 hrs by MTT assay; assay type: functional, organism-based; conditions: dose 25-100 µM
Enterovirus [5] = assay: Antiviral activity against EV71 infected in human RD cells assessed as inhibition of virus-induced cell death at 100 uM incubated for 48 hrs by MTT assay relative to control; assay type: functional, 71; conditions: for inhibition at 100 µM: Enterovirus, 71, RD
[6] = Selectivity index, ratio of CC50 for cytotoxicity against human RD cells to EC50 for antiviral activity against EV71 infected in human RD cells; assay type: toxicity, cell-based; conditions: read-out: Ratio CC50/EC50
Coxsackievirus B3 [7] = assay: Antiviral activity against CVB3 infected in HEp-2 cells assessed as inhibition of virus-induced cell death at 50 uM incubated for 48 hrs by MTT assay relative to control; assay type: functional; conditions: Enterovirus B
Enterovirus [8] = assay: Antiviral activity against EV71 infected in human RD cells assessed as inhibition of virus-induced cell death at 50 uM incubated for 48 hrs by MTT assay relative to control; assay type: functional; conditions: Enterovirus, 71, RD
Coxsackievirus B3 [9] = assay: Antiviral activity against CVB3 infected in HEp-2 cells assessed as inhibition of virus-induced cell death at 100 uM incubated for 48 hrs by MTT assay relative to control; assay type: functional; conditions: for inhibition (INH): 48 h, 100 µM; for inhibition at 100 µM: Enterovirus B, HEp-2, 48 h
Enterovirus [10] = assay: Antiviral activity against EV71 infected in human RD cells assessed as inhibition of virus-induced cell death at 25 uM incubated for 48 hrs by MTT assay relative to control; assay type: functional; conditions: Enterovirus, 71, RD
Enterovirus [11] = assay: Antiviral activity against EV71 infected in human RD cells assessed as inhibition of virus-induced cell death at 25 to 100 uM incubated for 48 hrs by MTT assay; assay type: functional, organism-based; conditions: 71, dose 25-100 µM
[12] = Cytotoxicity against human RD cells incubated for 48 hrs by MTT assay; assay type: toxicity, cell-based
[13] = Selectivity index, ratio of CC50 for cytotoxicity against HEp-2 cells to EC50 for antiviral activity against CVB3 infected in HEp-2 cells; assay type: toxicity, cell-based; conditions: human, read-out: Ratio CC50/EC50
[14] = Cytotoxicity against human HEp-2 cells incubated for 48 hrs by MTT assay; assay type: toxicity, cell-based

Compound | EC50 (Enterovirus [1]) [µM] | inhibition at 25 µM (Coxsackievirus B3 [2]) [%] | EC50 (Coxsackievirus B3 [3]) [µM] | antiviral activity call (active/inactive) (Coxsackievirus B3 [4]) | Imax (Enterovirus [5]) [%] | inhibition at 100 µM (Enterovirus [5]) [%] | selectivity ratio [6] | inhibition at 50 µM (Coxsackievirus B3 [7]) [%] | inhibition at 50 µM (Enterovirus [8]) [%] | inhibition (INH) (Coxsackievirus B3 [9]) [%] | inhibition at 100 µM (Coxsackievirus B3 [9]) [%] | inhibition at 25 µM (Enterovirus [10]) [%] | inhibition (Enterovirus [11]) | CC50 at 48 h [12] [µM] | selectivity ratio [13] | CC50 at 48 h [14] [µM]
COc1cc(CNC(=O)C23CCC(=O)N2c2ccc(Cl)cc2C(=O)N3)ccc1O (stereo not drawn) | 27.2 | 48.9 | 17.4 | Active | 97.48 | 97.5 | 5.9 | 30.7 | 81.3 | 92.3 | 87.3 | 67.5 | Active | 160 | 10.8 | 188
COC(=O)C(Cc1c[nH]c2ccccc12)NC(=O)C12CCC(=O)N1c1ccc(Cl)cc1C(=O)N2 (stereo not drawn) | 24.8 | 36.6 | 55.6 | Active | – | 74 | 6.4 | 45 | 75.3 | – | 63.7 | 60.6 | Active | 158 | 3.1 | 171
CSCCNC(=O)C12CCC(=O)N1c1ccc(Cl)cc1C(=O)N2 (stereo not drawn) | 44.5 | 20.3 | – | – | – | 26.2 | 6 | 30.1 | 28.8 | – | 46.7 | 34.9 | Active | 269 | – | 315
O=C1NC2(C(=O)NCCc3c[nH]c4ccccc34)CCC(=O)N2c2ccccc21 (stereo not drawn) | 18.6 | 28.9 | 65.8 | Active | – | 67 | 11.2 | 44.4 | 73.1 | – | 62.1 | 64.1 | Active | 208 | 2.8 | 185
COc1cc(CNC(=O)C23CCC(=O)N2c2ccccc2C(=O)N3)ccc1O (stereo not drawn) | – | 42.2 | 35.8 | Active | 91.33 | 91.3 | – | 56.6 | 85.9 | 82.4 | 82.4 | 64.3 | – | 264 | 6.6 | 238
CC(NC(=O)C12CCC(=O)N1c1ccccc1C(=O)N2C)c1ccccc1 (stereo not drawn) | – | – | – | – | – | – | – | – | – | – | – | – | – | 234 | – | 223
CS(=O)(=O)CCNC(=O)C12CCC(=O)N1c1ccc(Cl)cc1C(=O)N2 (stereo not drawn) | – | 12.2 | – | – | – | 22.8 | – | 24.3 | 28 | – | 28.5 | 33.8 | – | 243 | – | 202
COc1cc(CNC(=O)C23CCC(=O)N2c2ccccc2C(=O)N3C)ccc1O (stereo not drawn) | – | – | – | Active | – | – | – | – | – | – | – | – | – | 243 | – | 251
CC(NC(=O)C12CCC(=O)N1c1ccc(Cl)cc1C(=O)N2)c1ccccc1 (stereo not drawn) | 29.4 | 16 | 103 | Active | – | 71.7 | 9.2 | 31.5 | 53.3 | – | 47.9 | 44.4 | Active | 270 | 2.3 | 239
CSCCNC(=O)C12CCC(=O)N1c1ccccc1C(=O)N2 (stereo not drawn) | – | 7.9 | – | – | – | 3.9 | – | 12.3 | 7.3 | – | 26.9 | 5.7 | – | 288 | – | 210
O=C1NC2(C(=O)NCCc3c[nH]c4ccccc34)CCC(=O)N2c2ccc(Cl)cc21 (stereo not drawn) | 16.8 | 38.5 | 33.5 | Active | – | 88.4 | 8.3 | 77.3 | 66.8 | – | 65.7 | 57.8 | Active | 140 | 5.4 | 180
CN1C(=O)c2ccccc2N2C(=O)CCC12C(=O)NCCS(C)(=O)=O (stereo not drawn) | – | 38.9 | 64.5 | Active | – | 62.3 | – | 46.6 | 56.7 | – | 55.2 | 33 | – | 251 | – | 205
CS(=O)(=O)CCNC(=O)C12CCC(=O)N1c1ccccc1C(=O)N2 (stereo not drawn) | – | 3.6 | – | – | – | 1.6 | – | 6.5 | 3.2 | – | 11.9 | 2 | – | 262 | 3.2 | 176
CC(NC(=O)C12CCC(=O)N1c1ccccc1C(=O)N2)c1ccccc1 (stereo not drawn) | 32.4 | – | – | – | – | – | 7.9 | – | – | – | – | – | Active | 256 | – | 205
COC(=O)C(Cc1c[nH]c2ccccc12)NC(=O)C12CCC(=O)N1c1ccccc1C(=O)N2 (stereo not drawn) | 28.8 | 30.8 | 43 | Active | – | 89.1 | 8 | 45.7 | 74 | – | 83.1 | 65.8 | Active | 230 | 4.1 | 177
CSCCNC(=O)C12CCC(=O)N1c1ccccc1C(=O)N2C (stereo not drawn) | – | 20.7 | – | – | – | 7.9 | – | 24.4 | 13.7 | – | 32.1 | 6.6 | – | 278 | – | 238
COC(=O)C(CCSC)NC(=O)C12CCC(=O)N1c1ccccc1C(=O)N2C (stereo not drawn) | – | 20.8 | – | – | – | 1.3 | – | 20.2 | 6.2 | – | 27.3 | 3.2 | – | 252 | 3.6 | 200
COC(=O)C(CCSC)NC(=O)C12CCC(=O)N1c1ccccc1C(=O)N2 (stereo not drawn) | – | 13.3 | – | – | – | 4.8 | – | 21.7 | 5 | – | 27.9 | 6.1 | – | 245 | – | 212
COC(=O)C(CCSC)NC(=O)C12CCC(=O)N1c1ccc(Cl)cc1C(=O)N2 (stereo not drawn) | 53.4 | 29.8 | 60.1 | Active | – | 58.7 | 4.4 | 49.9 | 58.8 | – | 58.8 | 50.3 | Active | 235 | – | 214

Reference: ChEMBL document CHEMBL6114999, “Natural pyrrolo[1,2-a]quinazolinone derivatives: Design, synthesis, characterization, and bio-evaluation as novel antiviral agents” (Eur J Med Chem, 2025)
